Patent US11872262B2, “Means and methods for treating bacterial infections” (VIB VZW, priority 2017, dated 2024)
Residues, ends and D or L forms follow the SMILES beside them.

System: E. coli O157:H7
Assay type: cell-based, Escherichia coli
Conditions: screening-stage peptides tested at 1, 6, 12 and 25 μg/mL
From the text: In the present invention we used the statistical thermodynamics algorithm TANGO to identify aggregation prone regions (APR) in the proteome of E. coli strain O157:H7. This yielded 3535 sequences of at least 6 amino acids in length and a TANGO score of at least 20%. In order to generate efficient aggregation seeds, we employed a previously devised tandem repeat design ^19, 21, in which the APRs are repeated once and separated by a linker. Given the length limitation on solid phase peptide synthesis with regard to yield and purity, we focused on the 1542 APRs with a length of 7 amino acids. In order to maximize the potential of these peptides to induce aggregation in E. coli, we ranked the APRs by their frequency of occurrence throughout the E. coli proteome, allowing a single amino acid mismatch, and selected the first 75 most frequently occurring sequences from this list (Table 4). In the design pattern, and in order to increase the colloidal stability of these aggregating peptides, the APRs are flanked by aggregation gatekeepers, a class of residues that was previously shown to reduce aggregation kinetics^22-24. […] To generate the tandem we used a single proline residue as a linker between the gatekeeper-flanked APRs. In addition to the 75 peptides generated in this fashion, we added 2 variants of each of the first 25 peptides in the list by randomly mutating one residue in the first APR repeat to arginine to further modulate the aggregation propensity of the peptides (Table 4). All the peptides were generated using solid phase synthesis at 200 nmole scale and dissolved in DMSO to a theoretical stock concentration of 2 mM (assuming 100% synthesis efficiency). Peptide activity on the growth of E. coli O157:H7 was measured at dilutions of the peptide corresponding to concentrations of 1, 6, 12 and 25 μg/mL. […] The Matthews Correlations Coefficient (MCC) with the measured activity was 0.1 at 12 μg/mL and 0.24 at 25 μg/mL.

Row | Structure (SMILES) | E. coli O157 (apparent MIC in screen) [µg/mL]
1 | CC(C)C[C@H](NC(=O)CNC(=O)[C@H](CC(C)C)NC(=O)[C@@H](NC(=O)[C@H](C)NC(=O)[C@H](CCCNC(=N)N)NC(=O)[C@@H]1CCCN1C(=O)[C@H](CCCNC(=N)N)NC(=O)[C@H](CCCNC(=N)N)NC(=O)[C@H](C)NC(=O)[C@H](CC(C)C)NC(=O)[C@H](CC(C)C)NC(=O)CNC(=O)[C@H](CCCNC(=N)N)NC(=O)[C@@H](NC(=O)[C@H](C)NC(=O)[C@@H](N)CCCNC(=N)N)C(C)C)C(C)C)C(=O)N[C@@H](CC(C)C)C(=O)N[C@@H](C)C(=O)N[C@@H](CCCNC(=N)N)C(=O)N[C@@H](CCCNC(=N)N)C(=O)O [Peptide P88] (H-RAVRGLLARRPRAVLGLLARR-OH; N-terminus and C-terminus assumed) | 25
2 | CC(C)C[C@H](NC(=O)CNC(=O)[C@H](CCCNC(=N)N)NC(=O)[C@@H]1CCCN1C(=O)[C@H](CCCNC(=N)N)NC(=O)[C@H](CCCNC(=N)N)NC(=O)[C@H](C)NC(=O)[C@H](CC(C)C)NC(=O)[C@H](CCCNC(=N)N)NC(=O)[C@H](C)NC(=O)[C@H](CC(C)C)NC(=O)[C@H](CC(C)C)NC(=O)CNC(=O)[C@@H](N)CCCNC(=N)N)C(=O)N[C@@H](CC(C)C)C(=O)N[C@@H](C)C(=O)N[C@@H](CC(C)C)C(=O)N[C@@H](CC(C)C)C(=O)N[C@@H](C)C(=O)N[C@@H](CCCNC(=N)N)C(=O)N[C@@H](CCCNC(=N)N)C(=O)O [Peptide P89] (H-RGLLARLARRPRGLLALLARR-OH; N-terminus and C-terminus assumed) | 12
3 | CC[C@H](C)[C@H](NC(=O)CNC(=O)[C@H](CCCNC(=N)N)NC(=O)[C@H](CC(C)C)NC(=O)[C@@H](N)CCCNC(=N)N)C(=O)N[C@@H](C)C(=O)N[C@@H](CC(C)C)C(=O)NCC(=O)N[C@@H](CCCNC(=N)N)C(=O)N[C@@H](CCCNC(=N)N)C(=O)N1CCC[C@H]1C(=O)N[C@@H](CCCNC(=N)N)C(=O)N[C@@H](CC(C)C)C(=O)N[C@H](C(=O)NCC(=O)N[C@H](C(=O)N[C@@H](C)C(=O)N[C@@H](CC(C)C)C(=O)NCC(=O)N[C@@H](CCCNC(=N)N)C(=O)N[C@@H](CCCNC(=N)N)C(=O)O)[C@@H](C)CC)[C@@H](C)CC [Peptide P90] (H-RLRGIALGRRPRLIGIALGRR-OH; N-terminus and C-terminus assumed) | 25
4 | CC(C)C[C@H](NC(=O)[C@H](C)NC(=O)[C@@H](N)CCCNC(=N)N)C(=O)N[C@@H](CC(C)C)C(=O)N[C@H](C(=O)N[C@@H](C)C(=O)N[C@@H](CCCNC(=N)N)C(=O)N[C@@H](CC(C)C)C(=O)N[C@@H](CCCNC(=N)N)C(=O)N[C@@H](CCCNC(=N)N)C(=O)N1CCC[C@H]1C(=O)N[C@@H](CCCNC(=N)N)C(=O)N[C@@H](C)C(=O)N[C@@H](CC(C)C)C(=O)N[C@@H](CC(C)C)C(=O)N[C@H](C(=O)N[C@@H](C)C(=O)N[C@H](C(=O)N[C@@H](CC(C)C)C(=O)N[C@@H](CCCNC(=N)N)C(=O)N[C@@H](CCCNC(=N)N)C(=O)O)C(C)C)[C@@H](C)O)[C@@H](C)O [Peptide P91] (H-RALLTARLRRPRALLTAVLRR-OH; N-terminus and C-terminus assumed) | 25
5 | CC(C)C[C@H](NC(=O)[C@H](C)NC(=O)[C@@H](NC(=O)[C@H](CC(C)C)NC(=O)[C@H](CCC(N)=O)NC(=O)[C@H](CCCNC(=N)N)NC(=O)[C@@H]1CCCN1C(=O)[C@H](CCCNC(=N)N)NC(=O)[C@H](CCCNC(=N)N)NC(=O)[C@@H](NC(=O)[C@H](CC(C)C)NC(=O)[C@H](CCCNC(=N)N)NC(=O)[C@H](C)NC(=O)[C@@H](NC(=O)[C@H](CC(C)C)NC(=O)[C@H](CCC(N)=O)NC(=O)[C@@H](N)CCCNC(=N)N)C(C)C)C(C)C)C(C)C)C(=O)N[C@@H](CC(C)C)C(=O)N[C@H](C(=O)N[C@@H](CCCNC(=N)N)C(=O)N[C@@H](CCCNC(=N)N)C(=O)O)C(C)C [Peptide P92] (H-RQLVARLVRRPRQLVALLVRR-OH; N-terminus and C-terminus assumed) | 6
6 | CC(C)C[C@H](NC(=O)[C@H](C)NC(=O)[C@H](CC(C)C)NC(=O)[C@@H](NC(=O)[C@H](C)NC(=O)[C@H](CO)NC(=O)[C@H](CCCNC(=N)N)NC(=O)[C@@H]1CCCN1C(=O)[C@H](CCCNC(=N)N)NC(=O)[C@H](CCCNC(=N)N)NC(=O)[C@H](CC(C)C)NC(=O)[C@H](CC(C)C)NC(=O)[C@H](C)NC(=O)[C@H](CC(C)C)NC(=O)[C@H](CCCNC(=N)N)NC(=O)[C@H](C)NC(=O)[C@H](CO)NC(=O)[C@@H](N)CCCNC(=N)N)C(C)C)C(=O)N[C@@H](CC(C)C)C(=O)N[C@@H](CCCNC(=N)N)C(=O)N[C@@H](CCCNC(=N)N)C(=O)O [Peptide P93] (H-RSARLALLRRPRSAVLALLRR-OH; N-terminus and C-terminus assumed) | 25
7 | CC(C)C[C@H](NC(=O)CNC(=O)[C@H](CCCNC(=N)N)NC(=O)[C@@H]1CCCN1C(=O)[C@H](CCCNC(=N)N)NC(=O)[C@H](CCCNC(=N)N)NC(=O)[C@H](CCC(N)=O)NC(=O)[C@H](CC(C)C)NC(=O)[C@H](C)NC(=O)[C@H](CC(C)C)NC(=O)[C@H](CCCNC(=N)N)NC(=O)[C@H](CC(C)C)NC(=O)CNC(=O)[C@@H](N)CCCNC(=N)N)C(=O)N[C@@H](CC(C)C)C(=O)N[C@@H](CC(C)C)C(=O)N[C@@H](C)C(=O)N[C@@H](CC(C)C)C(=O)N[C@@H](CCC(N)=O)C(=O)N[C@@H](CCCNC(=N)N)C(=O)N[C@@H](CCCNC(=N)N)C(=O)O [Peptide P99] (H-RGLRLALQRRPRGLLLALQRR-OH; N-terminus and C-terminus assumed) | 25
8 | CC(C)C[C@H](NC(=O)[C@H](CC(C)C)NC(=O)[C@H](CC(C)C)NC(=O)[C@H](CCCNC(=N)N)NC(=O)[C@@H]1CCCN1C(=O)[C@H](CCCNC(=N)N)NC(=O)[C@H](CCCNC(=N)N)NC(=O)[C@@H](NC(=O)[C@H](CC(C)C)NC(=O)[C@H](CC(C)C)NC(=O)[C@H](CO)NC(=O)[C@H](CCCNC(=N)N)NC(=O)[C@H](CC(C)C)NC(=O)[C@H](CC(C)C)NC(=O)[C@@H](N)CCCNC(=N)N)C(C)C)C(=O)N[C@@H](CO)C(=O)N[C@@H](CC(C)C)C(=O)N[C@@H](CC(C)C)C(=O)N[C@H](C(=O)N[C@@H](CCCNC(=N)N)C(=O)N[C@@H](CCCNC(=N)N)C(=O)O)C(C)C [Peptide P101] (H-RLLRSLLVRRPRLLLSLLVRR-OH; N-terminus and C-terminus assumed) | 12
9 | CC(C)C[C@H](NC(=O)[C@H](C)NC(=O)[C@H](CC(C)C)NC(=O)[C@H](CC(C)C)NC(=O)[C@H](CC(C)C)NC(=O)[C@H](CCCNC(=N)N)NC(=O)[C@@H]1CCCN1C(=O)[C@H](CCCNC(=N)N)NC(=O)[C@H](CCCNC(=N)N)NC(=O)[C@H](CO)NC(=O)[C@H](CCCNC(=N)N)NC(=O)[C@H](CC(C)C)NC(=O)[C@H](C)NC(=O)[C@H](CC(C)C)NC(=O)[C@H](CC(C)C)NC(=O)[C@H](CC(C)C)NC(=O)[C@@H](N)CCCNC(=N)N)C(=O)N[C@@H](CC(C)C)C(=O)N[C@@H](CO)C(=O)N[C@@H](CCCNC(=N)N)C(=O)N[C@@H](CCCNC(=N)N)C(=O)O [Peptide P103] (H-RLLLALRSRRPRLLLALLSRR-OH; N-terminus and C-terminus assumed) | 25
10 | CC(C)C[C@H](NC(=O)[C@H](C)NC(=O)[C@@H](N)CCCNC(=N)N)C(=O)N[C@@H](CC(C)C)C(=O)N[C@@H](CCCNC(=N)N)C(=O)N[C@H](C(=O)N[C@@H](CC(C)C)C(=O)N[C@@H](CC(C)C)C(=O)N[C@@H](CCCNC(=N)N)C(=O)N[C@@H](CCCNC(=N)N)C(=O)N1CCC[C@H]1C(=O)N[C@@H](CCCNC(=N)N)C(=O)N[C@@H](C)C(=O)N[C@@H](CC(C)C)C(=O)N[C@@H](CC(C)C)C(=O)N[C@H](C(=O)N[C@H](C(=O)N[C@@H](CC(C)C)C(=O)N[C@@H](CC(C)C)C(=O)N[C@@H](CCCNC(=N)N)C(=O)N[C@@H](CCCNC(=N)N)C(=O)O)[C@@H](C)O)[C@@H](C)O)[C@@H](C)O [Peptide P105] (H-RALLRTLLRRPRALLTTLLRR-OH; N-terminus and C-terminus assumed) | 6
11 | CC(C)C[C@H](NC(=O)[C@H](C)NC(=O)[C@H](CC(C)C)NC(=O)[C@@H](NC(=O)[C@H](CCCNC(=N)N)NC(=O)[C@@H]1CCCN1C(=O)[C@H](CCCNC(=N)N)NC(=O)[C@H](CCCNC(=N)N)NC(=O)[C@H](CC(C)C)NC(=O)[C@H](C)NC(=O)[C@H](CCCNC(=N)N)NC(=O)[C@H](CC(C)C)NC(=O)[C@H](C)NC(=O)[C@H](CC(C)C)NC(=O)[C@@H](NC(=O)[C@@H](N)CCCNC(=N)N)C(C)C)C(C)C)C(=O)N[C@@H](C)C(=O)N[C@@H](C)C(=O)N[C@@H](CC(C)C)C(=O)N[C@@H](CCCNC(=N)N)C(=O)N[C@@H](CCCNC(=N)N)C(=O)O [Peptide P111] (H-RVLALRALRRPRVLALAALRR-OH; N-terminus and C-terminus assumed) | 25
